The text below walks through data of ChEMBL document CHEMBL5365408, “Small molecule inhibitors of PCSK9. SAR investigations of head and amine groups” (Bioorg Med Chem Lett, 2023).

Usually IC50 stands for the concentration that inhibits the measured activity by half. As usually defined, the inhibition is the share of the control response that was lost under treatment. A high value points to a response far below the control. Usually Cmax stands for the highest concentration seen after dosing. A word on the logD: it is lipophilicity at a set pH, counting ionised and neutral species. The low end stands for lower lipophilicity, the high end for higher lipophilicity.

Data set [1] deals with T1, Proprotein convertase subtilisin/kexin type 9 (Homo sapiens, UniProt Q8NBP7). The data set is described as follows: Inhibition of full length human PCSK9 expressed in human Huh-7 cells by ELISA analysis. It counts as cell-based. (In general: ELISA stands for enzyme-linked immunosorbent assay.)
T1 sequence (Q8NBP7 31-152 limits assumed): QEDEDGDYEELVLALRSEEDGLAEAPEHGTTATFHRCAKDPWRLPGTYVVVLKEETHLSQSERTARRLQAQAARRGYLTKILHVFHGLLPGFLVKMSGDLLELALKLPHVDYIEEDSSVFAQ
T1 sequence (Q8NBP7 153-692 limits assumed): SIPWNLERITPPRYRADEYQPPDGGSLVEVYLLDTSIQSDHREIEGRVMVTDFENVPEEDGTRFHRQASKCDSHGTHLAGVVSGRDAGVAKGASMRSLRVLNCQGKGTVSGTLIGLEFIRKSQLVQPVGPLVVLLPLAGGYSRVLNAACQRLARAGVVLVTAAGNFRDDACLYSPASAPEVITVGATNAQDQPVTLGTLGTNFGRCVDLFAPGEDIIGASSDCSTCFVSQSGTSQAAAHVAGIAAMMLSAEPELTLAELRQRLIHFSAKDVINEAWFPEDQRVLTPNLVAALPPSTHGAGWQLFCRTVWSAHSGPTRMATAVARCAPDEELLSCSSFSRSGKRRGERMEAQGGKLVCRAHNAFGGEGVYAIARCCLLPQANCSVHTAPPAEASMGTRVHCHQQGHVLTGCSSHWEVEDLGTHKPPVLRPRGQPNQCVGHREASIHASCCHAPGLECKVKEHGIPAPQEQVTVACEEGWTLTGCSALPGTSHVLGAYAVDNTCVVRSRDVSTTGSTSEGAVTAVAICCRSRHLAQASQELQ
Data set [2] in a line: Cytotoxicity against rat Bone marrow cell assessed as inhibition of cell growth with puromycin as high potent effect standard by celltiter-glo assay. The settings on record: rat bone marrow cells. The data set is classed as toxicity, cell-based. A general note: Cellular ATP, detected with luciferase, serves as a proxy for viable cell number.
Data set [3] in a line: Selectivity index, ratio of IC50 for cytotoxicity against rat Bone marrow cell assessed as inhibition of cell growth by celltiter-glo assay to IC50 for inhibition of full length human PCSK9 expressed in human Huh-7 cells by ELISA analysis.
Data set [4] concerns Bone marrow cell. The data set is described as follows: (§1) Cytotoxicity against rat Bone marrow cell assessed as inhibition of cell growth with (R)-4-(3H-[1,2,3]triazolo[4,5-b]pyridin-3-yl)-N-(3-chloropyridin-2-yl)-N-(piperidin-3-yl) benzamide as high potent effect standard by celltiter-glo assay. Conditions: bone marrow cell. The data set is classed as toxicity, cell-based.
Data set [5] can be described thus: as §1. Conditions: rat, rat bone marrow cells. It counts as toxicity, cell-based.
Data set [6] addresses T1, Proprotein convertase subtilisin/kexin type 9. The data set is described as follows: Inhibition of full length human PCSK9 expressed in human Huh-7 cells at 20 uM by ELISA analysis relative to control. It counts as cell-based.
Data set [7] can be described thus: Cmax in rat at 25 mg/kg, po. The settings on record: in vivo. Further details: dose 25 mg/kg, route po. It counts as ADME, organism-based.
The nature of data set [8]: Cytotoxicity against human CD34-positive cell assessed as reduction in cell growth by celltiter-glo assay. The data set is classed as toxicity, cell-based. The settings on record: human CD34-positive cells.
Data set [9] deals with Voltage-gated inwardly rectifying potassium channel KCNH2 (Homo sapiens, UniProt Q12809). In words: Inhibition of hERG by patch clamp assay. It counts as toxicity. On the technique in general: The hERG channel carries a current that helps repolarise heart muscle cells.
Chain of Voltage-gated inwardly rectifying potassium channel KCNH2 (Q12809 whole entry): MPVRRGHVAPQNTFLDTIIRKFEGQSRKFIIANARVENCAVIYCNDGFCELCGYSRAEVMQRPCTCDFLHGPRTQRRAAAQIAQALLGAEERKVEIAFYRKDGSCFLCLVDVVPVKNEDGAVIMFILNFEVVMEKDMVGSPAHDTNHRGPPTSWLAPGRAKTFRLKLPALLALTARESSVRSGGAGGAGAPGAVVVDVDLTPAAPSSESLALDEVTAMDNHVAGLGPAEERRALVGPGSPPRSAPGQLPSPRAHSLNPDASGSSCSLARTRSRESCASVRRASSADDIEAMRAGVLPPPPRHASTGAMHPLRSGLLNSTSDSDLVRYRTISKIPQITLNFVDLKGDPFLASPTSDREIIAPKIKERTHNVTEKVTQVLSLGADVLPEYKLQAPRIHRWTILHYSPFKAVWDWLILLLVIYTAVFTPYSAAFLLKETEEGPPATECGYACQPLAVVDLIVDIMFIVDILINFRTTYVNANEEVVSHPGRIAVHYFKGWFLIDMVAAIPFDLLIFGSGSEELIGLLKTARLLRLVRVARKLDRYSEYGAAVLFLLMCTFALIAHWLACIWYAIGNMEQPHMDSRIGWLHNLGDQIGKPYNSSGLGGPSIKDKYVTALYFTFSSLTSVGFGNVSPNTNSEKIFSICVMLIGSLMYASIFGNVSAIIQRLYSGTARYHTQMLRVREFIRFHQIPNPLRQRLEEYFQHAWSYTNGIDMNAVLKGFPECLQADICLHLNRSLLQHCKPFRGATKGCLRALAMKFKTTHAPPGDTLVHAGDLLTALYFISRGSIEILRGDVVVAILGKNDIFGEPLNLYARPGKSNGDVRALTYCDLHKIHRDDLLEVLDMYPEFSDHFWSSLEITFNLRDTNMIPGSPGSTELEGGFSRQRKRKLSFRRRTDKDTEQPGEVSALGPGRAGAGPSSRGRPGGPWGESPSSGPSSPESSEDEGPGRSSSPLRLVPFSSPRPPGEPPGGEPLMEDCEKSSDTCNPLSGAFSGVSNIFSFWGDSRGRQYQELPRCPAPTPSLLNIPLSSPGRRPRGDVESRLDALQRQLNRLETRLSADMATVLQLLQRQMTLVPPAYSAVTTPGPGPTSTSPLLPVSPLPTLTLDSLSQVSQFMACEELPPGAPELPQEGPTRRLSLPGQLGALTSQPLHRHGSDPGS
Data set [10] in a line: Lipophilicity, log D of the compound by shake flask method. The settings on record: octanol/water. It counts as physicochemical.
Data set [11] in a line: Apparent permeability of compound in MDCK-II cells. Conditions: dog, read-out: permeability. The data set is classed as ADME, cell-based, Canis lupus familiaris.
Data set [12] is described as follows: Apparent permeability across apical to basolateral side in MDCK-MDR1 cells. It counts as ADME, cell-based, Canis lupus familiaris. The settings on record: dog, read-out: permeability.
Data set [13] is described as follows: Apparent permeability across basolateral to apical side in MDCK-MDR1 cells. It counts as ADME, cell-based, Canis lupus familiaris. Conditions: dog, read-out: permeability.
For data set [14], the target named is T2, CYP1A2 (Homo sapiens, UniProt P05177).
T2 sequence (P05177 whole entry): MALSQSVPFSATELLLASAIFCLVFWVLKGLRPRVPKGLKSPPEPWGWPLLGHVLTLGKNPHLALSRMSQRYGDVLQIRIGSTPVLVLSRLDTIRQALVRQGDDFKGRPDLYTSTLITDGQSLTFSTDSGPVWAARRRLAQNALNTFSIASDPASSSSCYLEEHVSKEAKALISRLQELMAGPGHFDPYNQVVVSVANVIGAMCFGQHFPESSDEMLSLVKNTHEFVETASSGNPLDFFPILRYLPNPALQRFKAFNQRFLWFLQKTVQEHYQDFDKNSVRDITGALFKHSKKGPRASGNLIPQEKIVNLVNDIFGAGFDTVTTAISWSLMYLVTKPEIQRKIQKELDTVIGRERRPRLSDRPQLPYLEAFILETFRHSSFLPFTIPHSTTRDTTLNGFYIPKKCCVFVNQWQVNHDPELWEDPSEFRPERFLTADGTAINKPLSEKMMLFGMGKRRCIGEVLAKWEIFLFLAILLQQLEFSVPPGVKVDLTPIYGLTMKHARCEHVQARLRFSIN
In words: Inhibition of CYP1A2 (unknown origin) at 3 uM relative to control. The data set is classed as ADME.

In data set [15] the target is CYP2D6 (Homo sapiens, UniProt P10635). The data set is described as follows: Inhibition of CYP2D6 (unknown origin) at 3 uM relative to control. The data set is classed as ADME.
Chain of CYP2D6 (P10635 whole entry): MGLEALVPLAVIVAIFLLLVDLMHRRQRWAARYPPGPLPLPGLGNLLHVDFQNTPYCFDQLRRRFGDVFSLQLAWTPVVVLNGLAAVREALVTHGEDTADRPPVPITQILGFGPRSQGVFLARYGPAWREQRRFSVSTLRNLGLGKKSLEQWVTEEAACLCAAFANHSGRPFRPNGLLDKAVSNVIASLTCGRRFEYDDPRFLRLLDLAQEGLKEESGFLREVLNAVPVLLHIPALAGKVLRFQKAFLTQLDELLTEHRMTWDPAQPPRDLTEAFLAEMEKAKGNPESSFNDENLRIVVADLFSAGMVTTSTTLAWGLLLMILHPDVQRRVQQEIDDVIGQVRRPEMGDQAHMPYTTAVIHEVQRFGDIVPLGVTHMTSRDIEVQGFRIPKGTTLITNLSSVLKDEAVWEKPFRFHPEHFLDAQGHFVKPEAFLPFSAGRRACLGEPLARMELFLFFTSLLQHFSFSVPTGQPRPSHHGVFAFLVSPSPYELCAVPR
The target of data set [16] is CYP2C9 (Homo sapiens, UniProt P11712). In words: Inhibition of CYP2C9 (unknown origin) at 3 uM relative to control. The data set is classed as ADME.
Chain of CYP2C9 (P11712 whole entry): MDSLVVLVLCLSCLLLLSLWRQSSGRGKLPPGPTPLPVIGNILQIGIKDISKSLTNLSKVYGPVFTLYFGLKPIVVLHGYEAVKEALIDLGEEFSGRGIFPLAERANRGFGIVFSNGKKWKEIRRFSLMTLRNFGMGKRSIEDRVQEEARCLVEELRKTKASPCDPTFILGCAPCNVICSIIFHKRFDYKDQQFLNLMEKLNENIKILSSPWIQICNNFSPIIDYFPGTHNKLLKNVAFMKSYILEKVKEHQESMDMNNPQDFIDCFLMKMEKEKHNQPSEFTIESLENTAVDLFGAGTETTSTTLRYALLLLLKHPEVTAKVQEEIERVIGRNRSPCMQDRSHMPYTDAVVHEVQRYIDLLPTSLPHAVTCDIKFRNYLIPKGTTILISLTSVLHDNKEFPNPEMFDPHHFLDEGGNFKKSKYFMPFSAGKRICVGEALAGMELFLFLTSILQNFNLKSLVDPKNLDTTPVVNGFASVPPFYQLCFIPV
Data set [17] has as its target CYP3A4 (Homo sapiens, UniProt P08684). In words: Inhibition of CYP3A4 (unknown origin) at 3 uM relative to control. It counts as ADME.
Data set [18] in a line: Unbound fraction in human plasma by equilibrium dialysis analysis. It counts as ADME, cell-free.
The nature of data set [19]: Unbound fraction in mouse plasma by equilibrium dialysis analysis. It counts as ADME, cell-free.

Chain of CYP3A4 (P08684 whole entry): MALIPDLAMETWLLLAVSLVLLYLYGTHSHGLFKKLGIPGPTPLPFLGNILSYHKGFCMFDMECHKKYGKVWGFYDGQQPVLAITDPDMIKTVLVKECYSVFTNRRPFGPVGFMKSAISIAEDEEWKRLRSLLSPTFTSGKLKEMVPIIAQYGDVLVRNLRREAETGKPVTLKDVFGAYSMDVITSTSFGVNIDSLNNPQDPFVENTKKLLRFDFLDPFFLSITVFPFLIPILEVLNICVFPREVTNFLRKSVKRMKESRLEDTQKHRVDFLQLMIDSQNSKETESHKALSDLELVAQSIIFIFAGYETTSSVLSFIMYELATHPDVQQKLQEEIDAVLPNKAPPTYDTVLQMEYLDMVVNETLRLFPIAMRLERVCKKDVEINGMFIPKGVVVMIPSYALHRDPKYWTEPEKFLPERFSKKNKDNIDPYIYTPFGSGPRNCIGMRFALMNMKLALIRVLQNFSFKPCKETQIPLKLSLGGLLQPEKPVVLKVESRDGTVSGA

As to `O=C(c1ccc(-c2cnn3cccnc23)cc1)N(c1ncccc1F)[C@@H]1CCCNC1`, in data set [1], the IC50 is more than 20 µM.

Take `Cc1ccnc(N(C(=O)c2ccc(-n3nnc4cccnc43)cc2)[C@@H]2CCCNC2)c1Cl`: the IC50 in data set [1] stood at 1.09 µM; in data set [2] it was 0.38 µM. The “Ratio IC50” value in data set [3] worked out at 0.35.

Consider `C[C@H]1CNC[C@H](N(C(=O)c2ccc(-n3nnc4cccnc43)cc2)c2ncccc2Cl)C1`, for which the IC50 was 14.1 µM in [1] and 22 µM in data set [4].

As to `O=C(c1ccc(-n2nnc3cccnc32)cc1)N(c1nccn1C1CC1)[C@@H]1CCCNC1`, the IC50 is 6.84 µM in [1] and 1.24 µM in data set [2]. Also, the “Ratio IC50” value in [3] stood at 0.18.

In the case of `O=C(c1ccc(-c2cnn3cccnc23)cc1)N(c1ncccc1-c1ccccc1)[C@@H]1CCCNC1`, the half-maximal inhibitory concentration (IC50) in [1] was 1.8 µM; in data set [2] it was 4.39 µM. In addition, the “Ratio IC50” value in data set [3] is recorded as 2.43.

Turning to `C[C@@H]1CNC[C@H](N(C(=O)c2ccc(-n3nnc4cccnc43)cc2)c2ncccc2Cl)C1` (racemic) [listing 1 of 2 here], in data set [5], the IC50 was 35.6 µM.

As to `C[C@@H]1CNC[C@H](N(C(=O)c2ccc(-n3nnc4cccnc43)cc2)c2ncccc2Cl)C1`, the IC50 was 17.1 µM in data set [1] and 23.3 µM in [4].

In [1], `O=C(c1ccc(-c2cnn3cccnc23)cc1)N(c1ncccc1C1CC1)[C@@H]1CCCNC1` had an IC50 of 7.74 µM.

Take `O=C(c1ccc(-n2nnc3cccnc32)cc1)N(c1ncccc1Cl)[C@H]1CNC[C@H](c2ccccc2)C1` (racemic): the IC50 was more than 20 µM in [1] and 12.5 µM in data set [5].

In [1], `O=C(c1ccc(-n2nnc3cccnc32)cc1)N(c1ncccc1Cl)[C@H]1CNC[C@H](Oc2ccccc2)C1` (racemic) registered an IC50 of more than 20 µM.

`Cc1cnc2c(c1)nnn2-c1ccc(C(=O)N(c2ncccc2Cl)[C@@H]2CCCNC2)nc1`: the IC50 in [2] came out at 19.9 µM; in data set [5] it was 27.1 µM.

For `C[C@@H]1CNC[C@H](N(C(=O)c2ccc(-n3nnc4cccnc43)cc2)c2ncccc2Cl)C1` (racemic) [listing 2 of 2 here], the inhibition in data set [6] was found to be 38%.

With `C[C@H]1CNC[C@H](N(C(=O)c2ccc(-n3nnc4cccnc43)cc2)c2ncccc2Cl)C1` (racemic) [listing 1 of 2 here], the IC50 in data set [5] came to 37.2 µM.

`O=C(c1ccc(-n2nnc3cccnc32)cc1)N(c1ncccc1Cl)[C@H]1CNC[C@H](CO)C1`: the results for the IC50 in [1] and in [4] were 4.6 µM and 7.2 µM, respectively.

Consider `CNC(=O)OC[C@H]1CNC[C@H](N(C(=O)c2ccc(-n3nnc4cccnc43)cc2)c2ncccc2Cl)C1` (racemic), for which, in [1], the IC50 is more than 20 µM.

In data set [1], `COc1cccnc1N(C(=O)c1ccc(-c2cnn3cccnc23)cc1)[C@@H]1CCCNC1` returned an IC50 of 16.9 µM.

In [1], `CC(=O)NC[C@H]1CNC[C@H](N(C(=O)c2ccc(-n3nnc4cccnc43)cc2)c2ncccc2Cl)C1` (racemic) had an IC50 of more than 20 µM.

For `O=C(c1ccc(-n2nnc3cccnc32)cc1)N(c1nccc2c1CCCC2)[C@@H]1CCCNC1`, the IC50 in [1] is 2.28 µM; in data set [2], 0.41 µM. The “Ratio IC50” value in data set [3] turned out to be 0.18.

Regarding `Cc1cccnc1N(C(=O)c1ccc(-n2nnc3cccnc32)cc1)[C@@H]1CCCNC1`, the IC50 in [1] turned out to be 1.97 µM; in data set [2], 0.99 µM. Further, the “Ratio IC50” value in data set [3] was found to be 0.5.

As for `Cn1ccc2ccnc(N(C(=O)c3ccc(-n4nnc5cccnc54)cc3)[C@@H]3CCCNC3)c21`, the results for the IC50 in [1] and in [2] were 0.58 µM and 0.04 µM, respectively. The “Ratio IC50” value in data set [3] came to 0.07.

In the case of `CCc1cccnc1N(C(=O)c1ccc(-c2cnn3cccnc23)cc1)[C@@H]1CCCNC1`, in data set [1], half-maximal inhibition (IC50) required 3.31 µM.

`CO[C@H]1CNC[C@H](N(C(=O)c2ccc(-n3nnc4cccnc43)cc2)c2ncccc2Cl)C1` (racemic): the IC50 in [1] was more than 20 µM; in data set [5], 76.6 µM.

Compound `C[C@H]1CNC[C@H](N(C(=O)c2ccc(-n3nnc4cccnc43)cc2)c2ncccc2Cl)C1` (racemic) [listing 2 of 2 here] had an inhibition in [6] of 43%.

Turning to `O=C(c1ccc(-n2nnc3cccnc32)cc1)N(c1ncccc1Cl)[C@H]1CNC[C@@H](CO)C1` (racemic), the IC50 in [5] was more than 100 µM. Moreover, the inhibition in data set [6] was 11%.

Take `NC(=O)NC[C@H]1CNC[C@H](N(C(=O)c2ccc(-n3nnc4cccnc43)cc2)c2ncccc2Cl)C1` (racemic): the IC50 in data set [1] is more than 20 µM.

Turning to `Cc1nccnc1N(C(=O)c1ccc(-n2nnc3cccnc32)cc1)[C@@H]1CCCNC1`, the figures for the IC50 in data set [1], in data set [2] and in [5] were 1.84 µM, 2.36 µM and 10.9 µM, respectively. Moreover, the “Ratio IC50” value in data set [3] was 1.28.

For the compound `Cn1ncc2ccnc(N(C(=O)c3ccc(-n4nnc5cccnc54)cc3)[C@@H]3CCCNC3)c21`, the IC50 in [1] was 0.62 µM; in [2] it was 0.18 µM. The “Ratio IC50” value in [3] amounted to 0.29.

For `O=C(c1ccc(-n2nnc3cccnc32)cc1)N(c1ncccc1Cl)[C@@H]1CCCNC1`, the values for the IC50 in data set [2] and in [5] were 1.15 µM and 3.23 µM, respectively. In [7], this compound gave a Cmax of 312 ng/mL.

On to `O=C(c1ccc(-n2nnc3cccnc32)cc1)N(c1ncccc1C(F)(F)F)[C@@H]1CCCNC1`, for which the figures for the IC50 in data set [1] and in data set [5] were 1.66 µM and 13.8 µM, respectively. Moreover, in [3], the “Ratio IC50” value was 8.28.

With `O=C(c1ccc(-n2nnc3cccnc32)cc1)N(c1nccc2ccsc12)[C@@H]1CCCNC1`, the figures for the IC50 in data set [1] and in data set [2] were 0.73 µM and 0.28 µM, respectively. In data set [3], the “Ratio IC50” value was determined as 0.38.

Consider `N#Cc1cccnc1N(C(=O)c1ccc(-c2cnn3cccnc23)cc1)[C@@H]1CCCNC1`, for which, in [1], the IC50 was more than 20 µM.

Compound `COC(=O)NC[C@H]1CNC[C@H](N(C(=O)c2ccc(-n3nnc4cccnc43)cc2)c2ncccc2Cl)C1` (racemic) displayed an IC50 in data set [1] of more than 20 µM.

In the case of `O=C(c1ccc(-n2nnc3cccnc32)cc1)N(c1ncccc1OC(F)(F)F)[C@@H]1CCCNC1`, the results for the IC50 in data set [1] and in [5] were 5.4 µM and 6.44 µM, respectively.

Take `O=C(c1ccc(-c2cnn3cccnc23)cc1)N(c1ncccc1C(F)(F)F)[C@@H]1CCCNC1`: the IC50 is 2.79 µM in [1]; more than 20 µM in data set [2]; 21.2 µM in [5]; 35.9 µM in [8]; 57.6 µM in data set [9]. In addition, in data set [3], the “Ratio IC50” value amounted to 7.6. For the same compound, in data set [10], the logD came to 1.1. For the same compound, the Papp in data set [11] was found to be 7 ×10⁻⁶ cm/s. Besides, the Papp A→B in data set [12] turned out to be 0.7 ×10⁻⁶ cm/s. The Papp B→A in [13] worked out at 26.4 ×10⁻⁶ cm/s. For the same compound, the inhibition at 3 µM in [14], in data set [15], in data set [16] and in data set [17] was less than 40% in each case. For the same compound, the results for the Fu in data set [18] and in [19] were 0.41% and 0.13%, respectively.

As to `O=C(c1ccc(-n2nnc3cccnc32)cc1)N(c1ncccc1Cl)[C@H]1CNC[C@H](CO)C1` (racemic), the IC50 came to 8.9 µM in data set [1] and 9.9 µM in data set [5].
